Results taken from patent publication US8652522B2, “Pharmaceutical composition of an iontophoresis” (Teikoku Seiyaku Co., Ltd., priority 2009, dated 2014).
Where two headings read alike, the source gives them in different places.

Experiments:
[1] = blood plasma
Experimental: (§1) Moreover, the condition of the transdermally administration in association with the treatment of applying current is as follows.
(§2) This was funneled into a patch comprising an electrode and an adhesion layer, and cooled down at −80° C. to obtain a desired drug product.
Two NZ family male rabbits to be devoted to the test was bought from […] LABES Co., Ltd., (Charles River Japan, Inc.). […] The observation of the animal during the preliminary breeding and the test, as to a hair coat, a skin and a excretory substance was carried out every day.
The administration route: the transdermally administration in association with the treatment of applying current
The radioactivity density assay in the blood plasma was carried out as follows.
A sample for assay was treated by adding the solubilizing agent, and the measurement of the sample was carried out by using the liquid scintillation counter (LSC-1000, ALOKA). The limit of determinate quantity was two folds of the background, and the lesser value of the limit was determined as ND. The radioactivity density assay in the blood plasma was calculated from the measured value.
The radioactivity density is used as indication pointer, the calibrated concentration of the chemical drug converted with unaltered substance was calculated by the following formula. The calibrated concentration of the chemical drug (μg eq./mL)=The radioactivity density in the sample (dpm/mL)/{the amount of the administration radioactivity (dpm)/the amount of the administration chemical drug (μg)}

[2] = remark: listed apart in the source
Experimental: as §1, §2
After that, an embedded freezing block was directed to the cutter of the microtome stage for mounting (CRYOMACROCUT, Leica), and a femoral region thereof was directed to the front, and a neck region was directed to the backside, and was fixed with being in close contact with the backside of the leg to the stage for mounting. When the stage for mounting of microtome was slid, the cutter was contacted perpendicular with the narrow side of the rectangular, the upper surface of this was chipped off as a sliced segment, the sliced segment was in close contact to the adhesive tape, and removed. This operation was repeated a couple dozens times, it was cleaved from the front portion of the knee to the backside portion, a segment of the administration and current-carrying part was (1) to (7) (from the front to the backside) in order of precedence.

SMILES: C[C@H]1C[C@H]2[C@@H]3CCC4=CC(=O)C=C[C@]4(C)[C@@]3(F)[C@@H](O)C[C@]2(C)[C@@]1(O)C(=O)COP(=O)([O-])[O-].[Na+].[Na+] [betamethasone sodium phosphate]
- pair theoritical value % Mean (N2-W (nitrogen-bubbled purified water), 4° C. 1 month): 107.68%
- pair theoritical value % Mean (N2-W (nitrogen-bubbled purified water), 4° C. 2 weeks): 99.20%
- pair theoritical value % Mean (N2-W (nitrogen-bubbled purified water), 4° C. 4 month): 100.06%
- pair theoritical value % Mean (N2-W (nitrogen-bubbled purified water), 4° C. 6 month): 98.27%
- pair theoritical value % Mean (N2-W (nitrogen-bubbled purified water), 40° C. 1 month): 85.82%
- pair theoritical value % Mean (N2-W (nitrogen-bubbled purified water), 40° C. 4 month): 100.30%
- pair theoritical value % Mean (N2-W (nitrogen-bubbled purified water), 50° C. 1 month): 89.72%
- pair theoritical value % Mean (N2-W (nitrogen-bubbled purified water), 50° C. 4 month): 77.62%
- pair theoritical value % Mean (N2-W (nitrogen-bubbled purified water), 60° C. 1 month): 38.91%
- pair theoritical value % Mean (N2-W (nitrogen-bubbled purified water), 60° C. 2 weeks): 91.76%
- pair theoritical value % Mean (N2-W (nitrogen-bubbled purified water), 60° C. 4 month): 41.97%
- pair theoritical value % Mean (W (purified water), 4° C. 1 month): 101.42%
- pair theoritical value % Mean (W (purified water), 4° C. 2 weeks): 101.05%
- pair theoritical value % Mean (W (purified water), 4° C. 4 month): 110.24%
- pair theoritical value % Mean (W (purified water), 4° C. 6 month): 98.01%
- pair theoritical value % Mean (W (purified water), 40° C. 1 month): 96.79%
- pair theoritical value % Mean (W (purified water), 40° C. 4 month): 100.99%
- pair theoritical value % Mean (W (purified water), 50° C. 1 month): 78.74%
- pair theoritical value % Mean (W (purified water), 50° C. 4 month): 70.87%
- pair theoritical value % Mean (W (purified water), 60° C. 1 month): 33.60%
- pair theoritical value % Mean (W (purified water), 60° C. 2 weeks): 85.69%
- pair theoritical value % Mean (W (purified water), 60° C. 4 month): 17.67%
- pair theoritical value % Mean (pH 2, 4° C. 1 month): 81.61%
- pair theoritical value % Mean (pH 2, 4° C. 2 weeks): 75.50%
- pair theoritical value % Mean (pH 2, 4° C. 4 month): 121.42%
- pair theoritical value % Mean (pH 2, 40° C. 1 month): 62.65%
- pair theoritical value % Mean (pH 2, 40° C. 4 month): 57.15%
- pair theoritical value % Mean (pH 2, 40° C. 6 month): 33.20%
- pair theoritical value % Mean (pH 2, 50° C. 1 month): 55.83%
- pair theoritical value % Mean (pH 2, 50° C. 4 month): 22.44%
- pair theoritical value % Mean (pH 2, 60° C. 1 month): 14.90%
- pair theoritical value % Mean (pH 2, 60° C. 2 weeks): 42.03%
- pair theoritical value % Mean (pH 2, 60° C. 4 month): 2.79%
- pair theoritical value % Mean (pH 3, 4° C. 1 month): 82.46%
- pair theoritical value % Mean (pH 3, 4° C. 2 weeks): 85.23%
- pair theoritical value % Mean (pH 3, 4° C. 4 month): 104.26%
- pair theoritical value % Mean (pH 3, 40° C. 1 month): 82.48%
- pair theoritical value % Mean (pH 3, 40° C. 4 month): 73.33%
- pair theoritical value % Mean (pH 3, 40° C. 6 month): 50.00%
- pair theoritical value % Mean (pH 3, 50° C. 1 month): 64.66%
- pair theoritical value % Mean (pH 3, 50° C. 4 month): 32.84%
- pair theoritical value % Mean (pH 3, 60° C. 1 month): 17.55%
- pair theoritical value % Mean (pH 3, 60° C. 2 weeks): 50.37%
- pair theoritical value % Mean (pH 3, 60° C. 4 month): 3.46%
- pair theoritical value % Mean (pH 4, 4° C. 1 month): 95.85%
- pair theoritical value % Mean (pH 4, 4° C. 2 weeks): 89.42%
- pair theoritical value % Mean (pH 4, 4° C. 4 month): 108.15%
- pair theoritical value % Mean (pH 4, 4° C. 6 month): 81.32%
- pair theoritical value % Mean (pH 4, 40° C. 1 month): 81.36%
- pair theoritical value % Mean (pH 4, 40° C. 4 month): 77.80%
- pair theoritical value % Mean (pH 4, 40° C. 6 month): 53.22%
- pair theoritical value % Mean (pH 4, 50° C. 1 month): 63.08%
- pair theoritical value % Mean (pH 4, 50° C. 4 month): 31.80%
- pair theoritical value % Mean (pH 4, 60° C. 1 month): 19.17%
- pair theoritical value % Mean (pH 4, 60° C. 2 weeks): 52.38%
- pair theoritical value % Mean (pH 4, 60° C. 4 month): 3.38%
- pair theoritical value % Mean (pH 5, 4° C. 1 month): 93.36%
- pair theoritical value % Mean (pH 5, 4° C. 2 weeks): 94.34%
- pair theoritical value % Mean (pH 5, 4° C. 4 month): 109.24%
- pair theoritical value % Mean (pH 5, 4° C. 6 month): 90.85%
- pair theoritical value % Mean (pH 5, 40° C. 1 month): 78.88%
- pair theoritical value % Mean (pH 5, 40° C. 4 month): 82.09%
- pair theoritical value % Mean (pH 5, 50° C. 1 month): 75.05%
- pair theoritical value % Mean (pH 5, 50° C. 4 month): 32.88%
- pair theoritical value % Mean (pH 5, 60° C. 1 month): 17.09%
- pair theoritical value % Mean (pH 5, 60° C. 2 weeks): 56.51%
- pair theoritical value % Mean (pH 5, 60° C. 4 month): 3.34%
- pair theoritical value % Mean (pH 6, 4° C. 1 month): 104.98%
- pair theoritical value % Mean (pH 6, 4° C. 2 weeks): 98.90%
- pair theoritical value % Mean (pH 6, 4° C. 4 month): 107.46%
- pair theoritical value % Mean (pH 6, 4° C. 6 month): 97.60%
- pair theoritical value % Mean (pH 6, 40° C. 1 month): 86.51%
- pair theoritical value % Mean (pH 6, 40° C. 4 month): 89.24%
- pair theoritical value % Mean (pH 6, 50° C. 1 month): 75.38%
- pair theoritical value % Mean (pH 6, 50° C. 4 month): 41.48%
- pair theoritical value % Mean (pH 6, 60° C. 1 month): 25.28%
- pair theoritical value % Mean (pH 6, 60° C. 2 weeks): 69.99%
- pair theoritical value % Mean (pH 6, 60° C. 4 month): 5.85%
- pair theoritical value % Mean (pH 7, 4° C. 1 month): 110.30%
- pair theoritical value % Mean (pH 7, 4° C. 2 weeks): 100.23%
- pair theoritical value % Mean (pH 7, 4° C. 4 month): 105.27%
- pair theoritical value % Mean (pH 7, 4° C. 6 month): 101.38%
- pair theoritical value % Mean (pH 7, 40° C. 1 month): 89.32%
- pair theoritical value % Mean (pH 7, 40° C. 4 month): 102.71%
- pair theoritical value % Mean (pH 7, 50° C. 1 month): 86.96%
- pair theoritical value % Mean (pH 7, 50° C. 4 month): 66.49%
- pair theoritical value % Mean (pH 7, 60° C. 1 month): 36.13%
- pair theoritical value % Mean (pH 7, 60° C. 2 weeks): 87.22%
- pair theoritical value % Mean (pH 7, 60° C. 4 month): 25.71%
- pair theoritical value % Mean (pH 8, 4° C. 1 month): 97.51%
- pair theoritical value % Mean (pH 8, 4° C. 2 weeks): 104.91%
- pair theoritical value % Mean (pH 8, 4° C. 4 month): 108.32%
- pair theoritical value % Mean (pH 8, 4° C. 6 month): 103.29%
- pair theoritical value % Mean (pH 8, 40° C. 1 month): 90.10%
- pair theoritical value % Mean (pH 8, 40° C. 4 month): 106.12%
- pair theoritical value % Mean (pH 8, 50° C. 1 month): 103.57%
- pair theoritical value % Mean (pH 8, 50° C. 4 month): 83.79%
- pair theoritical value % Mean (pH 8, 60° C. 1 month): 45.01%
- pair theoritical value % Mean (pH 8, 60° C. 2 weeks): 95.80%
- pair theoritical value % Mean (pH 8, 60° C. 4 month): 61.99%

SMILES: CC1CC2C3CCC4=CC(=O)C=CC4(C)C3(F)C(O)CC2(C)C1(O)C(=O)COP(=O)([O-])[O-].[Na+].[Na+] (stereo not drawn) [[^3H] Betamethasone-21-phosphate disodium salt]
- average of drug conversion ([1]; 30 min. administration individual, 10 minutes): 0.01 μg eq./mL
- average of drug conversion ([1]; 30 min. administration individual, 20 minutes): 0.03 μg eq./mL
- average of drug conversion ([1]; 30 min. administration individual, 30 minutes): 0.09 μg eq./mL
- average of drug conversion ([1]; 120 min. administration individual, 10 minutes): 0.04 μg eq./mL
- average of drug conversion ([1]; 120 min. administration individual, 20 minutes): 0.09 μg eq./mL
- average of drug conversion ([1]; 120 min. administration individual, 30 minutes): 0.23 μg eq./mL
- average of drug conversion ([1]; 120 min. administration individual, 60 minutes): 0.66 μg eq./mL
- average of drug conversion ([1]; 120 min. administration individual, 90 minutes): 0.91 μg eq./mL
- average of drug conversion ([1]; 120 min. administration individual, 120 minutes): 1.17 μg eq./mL
- blackened image according to 3H, cingulum of the perimysial tissue (perimysium) ([2]; existing up to the reticular dermis located in the inner side of the epidermal tissue): high density
- blackened image according to 3H at a fibrous encapsulation and a synovium membrane ([2]; synovial joint, administration time 120 minutes and 30 minutes): very slight amount
